Reference: patent US5591749A, “Imidazopyridines as serotonergic 5-HT3 -antagonists” (G. D. Searle & Co., priority 1995, dated 1997)
“And” between values parts separate entries of the source, which are not always exact repeats. Identical values can stand only once. Counter-ions that a name gives are not always drawn. Like-named read-outs stand apart in the source and are kept apart here.

Tests used:
5-HT3 = molecular target: T1, 5-HT3 (Mus musculus, UniProt P23979); assay: 5-HT3 binding, NG108-15 cells
T1 construct: NG108-15 Cells; endogenous in cells; host or cells: NG108-15 cells
T1 sequence (P23979 24-489): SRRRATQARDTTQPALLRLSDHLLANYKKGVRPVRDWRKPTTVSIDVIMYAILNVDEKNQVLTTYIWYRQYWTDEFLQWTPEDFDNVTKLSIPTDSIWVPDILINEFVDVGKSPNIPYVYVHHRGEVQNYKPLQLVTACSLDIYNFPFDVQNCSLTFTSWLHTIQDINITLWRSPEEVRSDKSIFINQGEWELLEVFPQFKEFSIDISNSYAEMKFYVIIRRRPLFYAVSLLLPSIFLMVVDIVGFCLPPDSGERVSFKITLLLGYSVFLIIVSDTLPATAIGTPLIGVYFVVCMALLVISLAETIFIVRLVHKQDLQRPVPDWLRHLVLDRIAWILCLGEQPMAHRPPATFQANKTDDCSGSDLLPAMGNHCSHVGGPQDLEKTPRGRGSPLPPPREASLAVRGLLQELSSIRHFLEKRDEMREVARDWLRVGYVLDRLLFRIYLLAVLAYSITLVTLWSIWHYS
Source text: (§1) 5-HT3 antagonism can be determined by the radioligand receptor binding assay as described herein and in the in vivo Bezold-Jarisch reflex procedure.

5-HT-induced bradycardia = assay: Bezold-Jarisch reflex (5-HT-induced bradycardia) in pentobarbital anesthetized mice; assay type: in vivo
Protocol: as §1
The test sample is administered i.p. (mg/kg) to a group of 3 mice. […] A greater than 50 percent (>50) reduction in the bradycardic response relative to vehicle-treated control mice is considered significant.
This method has been described by Saxena, P. R. and Lawang, A., Arch. Int. Pharmacodyn., 277:235-252, 1985.

5-HT3 receptor = molecular target: T2, 5-HT3 receptor (Rattus norvegicus, UniProt P35563); assay: [3H]-GR65630 radioligand receptor binding assay, rat brain cortex membranes; details: for Hill Coefficient: 0.2 nM [3H]-GR65630
T2 construct: Brain cortices are obtained from male rats and a membrane fraction prepared by standard techniques; from tissue; host or cells: rat brain cortex membranes
T2 sequence (P35563 24-483): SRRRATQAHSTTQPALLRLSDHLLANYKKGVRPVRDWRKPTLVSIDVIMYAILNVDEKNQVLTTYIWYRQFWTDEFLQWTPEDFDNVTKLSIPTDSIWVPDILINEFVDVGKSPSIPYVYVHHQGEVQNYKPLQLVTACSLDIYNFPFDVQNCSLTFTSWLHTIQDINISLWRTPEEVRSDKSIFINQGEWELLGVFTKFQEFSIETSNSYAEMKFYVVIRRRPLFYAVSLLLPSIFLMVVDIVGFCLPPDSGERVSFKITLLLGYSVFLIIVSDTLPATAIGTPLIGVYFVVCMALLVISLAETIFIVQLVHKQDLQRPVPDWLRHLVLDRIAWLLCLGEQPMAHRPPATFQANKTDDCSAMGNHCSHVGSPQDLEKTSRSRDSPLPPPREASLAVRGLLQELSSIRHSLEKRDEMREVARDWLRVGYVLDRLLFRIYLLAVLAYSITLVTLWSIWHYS
Protocol: as §1
GR65630 binds to the 5-HT3 receptor. Brain cortices are obtained from male rats and a membrane fraction prepared by standard techniques. 0.04 mg of membrane prep is incubated with 0.2 nM [^3 H]-GR656630 for 60 minutes at 22° C. […] Membranes are filtered and washed 3 times and the filters are counted to determine [3H]-GR65630 specifically bound.*
Effect of Reference Compounds on
Kilpatrick GJ, Jones BJ and Tyers MB. Identification and distribution of 5-HT3 receptors in rat brain using radioligand binding. Nature, 330: 746-748, 1987.

[1] = several examples have two IC50 values, read-out: 5-HT3 binding: NG108-15 cells IC50
[2] = Mus musculus, ip, 0.5 h, read-out: Minimum Effective Dose (MED)
[3] = Mus musculus, ip, 0.5 h; read-out: Minimum Effective Dose (MED)

O=C(N[C@H]1CCN2CCC[C@@H]1C2)c1cc(Cl)cn2ccnc12 (relative stereo) [Example 1, endo-N-(1-Azabicyclo[3.3.1]nonan-4-yl)-6-chloroimidazo[1,2-a]pyridine-8-carboxamide, dihydrochloride]
Ki (5-HT3): 0.137 µM
Bezold Jarisch reflex (mice); % Inhibition @ Dose (IP) (5-HT-induced bradycardia; 1 mg/kg i.p.): 68%
Bezold Jarisch reflex (mice); % Inhibition @ Dose (IP) (5-HT-induced bradycardia; 3 mg/kg i.p.): 73%
Bezold Jarisch reflex (mice); % Inhibition @ Dose (IP) (5-HT-induced bradycardia; 10 mg/kg i.p.): 87%

O=C(N[C@H]1[C@H]2C[C@@H]3CN(C2)C[C@@H]31)c1cc(Cl)cn2ccnc12 (relative stereo) [Example 9, (±)-endo-N-(Hexahydro-1H-2,5β-methano-3aα,6aα-cyclopenta[c]pyrrol-4α-yl)-6-chloroimidazo[1,2-a]pyridine-8-carboxamide, monohydrochloride]
Ki (5-HT3): 0.064 µM
IC50 (5-HT3; [1]): 0.016 µM and 0.127 µM

O=C(N[C@H]1[C@H]2C[C@@H]3CN(C2)C[C@@H]31)c1cccn2ccnc12 (relative stereo) [Example 10, (±)-endo-N-(Hexahydro-1H-2,5β-methano-3aα,6aα-cyclopenta[c]pyrrol-4α-yl)imidazo[1,2-a]pyridine-8-carboxamide, hydrochloride]
Ki (5-HT3): 0.122 µM
IC50 (5-HT3; [1]): 0.2 µM and 0.243 µM
Bezold Jarisch reflex (mice); % Inhibition @ Dose (IP) (5-HT-induced bradycardia; 10 mg/kg i.p.): 81%

CO[C@@H]1CN(CCCOc2ccc(F)cc2)CC[C@@H]1NC(=O)c1cccn2ccnc12 (relative stereo) [Example 13, Cis-N-[[3-(4-Fluorophenoxy)propyl]-3-methoxy-4piperidinylamine]imidazo[1,2-a]pyridine-8-carboxamide]
Bezold Jarisch reflex (mice); % Inhibition @ Dose (IP) (5-HT-induced bradycardia; 10 mg/kg i.p.): 23%

CCc1cc(C(=O)N[C@H]2[C@H]3C[C@@H]4CN(C3)C[C@@H]42)c2ccccn12 (relative stereo) [Example 15, (±)-endo-N-(Hexahydro-1H-2,5β-methano-3aα,6aα-cyclopenta[c]pyrrol-4aα-yl)-3-ethylindolizine-1-carboxamide monohydrochloride]
IC50 (5-HT3; [1]): 0.0263 µM

CCc1nc(C(=O)N[C@H]2[C@H]3C[C@@H]4CN(C3)C[C@@H]42)c2ccccn12 (relative stereo) [Example 16, (±)-endo-N-(Hexahydro-1H,2,5β-methano-3aα,6aα-cyclopenta[c]pyrrol-4α-yl)-3-ethylimidazo[1,5-a]pyridine-1-carboxamide, monohydrochloride]
IC50 (5-HT3; [1]): 0.03 µM

CN1C2CCCC1CC(NC(=O)c1nn(C)c3ccccc13)C2 (stereo not shown) [BRL-43694, reference compound]
minimal effective dose (5-HT-induced bradycardia; [2]): 0.05 mg/kg

Cl.Cl.O=C(NC1CCN2CCCC1C2)c1cccn2ccnc12 (stereo not drawn) [Example 2, endo-N-(1-Azabicyclo[3.3.1]nonan-4-yl)imidazo[1,2-a]pyridine-8-carboxamide, dihydrochloride]
Bezold Jarisch reflex (mice); % Inhibition @ Dose (IP) (5-HT-induced bradycardia; 5 mg/kg i.p.): 1%
Bezold Jarisch reflex (mice); % Inhibition @ Dose (IP) (5-HT-induced bradycardia; 10 mg/kg i.p.): 53%

CN1[C@@H]2CC[C@H]1C[C@@H](NC(=O)c1cc(Cl)cn3ccnc13)C2 [Example 3, endo-N-(8-Methyl-8-azabicyclo [3.2.1]octan-3-yl)-6-chloroimidazo[1,2-a]pyridine-8-carboxamide, dihydrochloride]
Ki (5-HT3): 0.05 µM
IC50 (5-HT3; [1]): 0.0193 µM and 0.099 µM

CN1[C@@H]2CC[C@H]1C[C@@H](NC(=O)c1cccn3ccnc13)C2 [Example 4, endo-N-(8-methyl-8-azabicyclo[3.2.1]octan-3-yl)imidazo [1,2-a]pyridine-8-carboxamide, hydrochloride]
Ki (5-HT3): 0.416 µM
IC50 (5-HT3; [1]): 0.5 µM and 0.831 µM
Bezold Jarisch reflex (mice); % Inhibition @ Dose (IP) (5-HT-induced bradycardia; 3 mg/kg i.p.): 2%
Bezold Jarisch reflex (mice); % Inhibition @ Dose (IP) (5-HT-induced bradycardia; 10 mg/kg i.p.): 82%

CN1[C@@H]2CC[C@H]1C[C@H](NC(=O)c1cccn3ccnc13)C2 [Example 5, exo-N-(8-methyl-8-azabicyclo[3.2.1]octan-3-yl)imidazo[1,2-a]pyridine-8-carboxamide, hydrochloride]
Ki (5-HT3): 0.314 µM
IC50 (5-HT3; [1]): 0.475 µM and 0.628 µM
Bezold Jarisch reflex (mice); % Inhibition @ Dose (IP) (5-HT-induced bradycardia; 10 mg/kg i.p.): 80%

CN1[C@@H]2CCC[C@H]1C[C@@H](NC(=O)c1cc(Cl)cn3ccnc13)C2 [Example 6, endo-N-(9-Methyl-9-azabicyclo[3.3.1]nonan-3-yl)-6-chloroimidazo[1,2-a]pyridine-8-carboxamide hydrochloride]
Ki (5-HT3): 0.0049 µM

O=C(NC1CN2CCC1CC2)c1cc(Cl)cn2ccnc12 (stereo not shown) [Example 7, N-(1-Azabicyclo[2.2.2]octan-3-yl)-6-chloroimidazo[1,2-a]pyridine-8-carboxamide dihydrochloride]
Ki (5-HT3): 0.012 µM
IC50 (5-HT3; [1]): 0.0175 µM and 0.023 µM

O=C(NC1CN2CCC1CC2)c1cccn2ccnc12 (stereo not shown) [Example 8, N-(1-Azabicyclo[2.2.2]octan-3-yl)imidazo[1,2-a]pyridine-8-carboxamide, dihydrochloride]
IC50 (5-HT3; read-out: 5-HT3 binding: NG108-15 cells IC50, several examples have two IC50 values): 0.07 µM
Bezold Jarisch reflex (mice); % Inhibition @ Dose (IP) (5-HT-induced bradycardia; 0.5 mg/kg i.p.): 82%
Bezold Jarisch reflex (mice); % Inhibition @ Dose (IP) (5-HT-induced bradycardia; 2.5 mg/kg i.p.): 88%
Bezold Jarisch reflex (mice); % Inhibition @ Dose (IP) (5-HT-induced bradycardia; 5 mg/kg i.p.): 95%
Bezold Jarisch reflex (mice); % Inhibition @ Dose (IP) (5-HT-induced bradycardia; 10 mg/kg i.p.): 100%

O=C(NC1C2CC3CC1CN(C3)C2)c1cc(Cl)cn2ccnc12 (stereo not drawn) [Example 11, exo-N-(1-azatricyclo[3.3.1.1^3,7]decan-4-yl)-6-chloroimidazo[1,2-a]pyridine-8-carboxamide, monohydrochloride]
IC50 (5-HT3; [1]): > 0.1 µM

CCN(CC)CCNC(=O)c1cccn2ccnc12 [Example 12, N-[2-(Diethylamino)ethyl]imidazo[1,2-a]pyridine-8-carboxamide]
IC50 (5-HT3; [1]): 0.017 µM

Cc1[nH]cnc1CCC(=O)c1cn(C)c2ccccc12 [GR65630]
Bmax (5-HT3 receptor; [3H]-GR65630, rat cortex membranes): 154 fmol/mg protein
Specific Binding (5-HT3 receptor; [3H]-GR65630, non-specific binding with 1 uM ICS 205-930): 70

Cc1nccn1CC1CCc2c(c3ccccc3n2C)C1=O (stereo not shown) [GR-38032, reference compound]
minimal effective dose (5-HT-induced bradycardia; [3]): 0.5 mg/kg

CN1[C@@H]2CC[C@H]1C[C@@H](OC(=O)c1c[nH]c3ccccc13)C2 [ICS 205-930]
Hill Coefficient (5-HT3 receptor): 1.0

c1ccc2nc(N3CCNCC3)ccc2c1 [Quipazine]
Hill Coefficient (5-HT3 receptor): 0.86

COc1ccc2[nH]cc(C3=CCNCC3)c2c1 [RU24969]
Hill Coefficient (5-HT3 receptor): 1.0

COc1cc(N)c(Cl)cc1C(=O)NC1CN2CCC1CC2 (stereo not shown) [Zacopride]
Hill Coefficient (5-HT3 receptor): 0.86

COc1cc(N)c(Cl)cc1C(=O)NC1CCN(CCCOc2ccc(F)cc2)CC1OC (stereo not shown) [cisapride, reference compound]
minimal effective dose (5-HT-induced bradycardia; [3]): 5 mg/kg

CN1CCC(=C2c3ccccc3C=Cc3ccccc32)CC1 [cyproheptadine, reference compound]
minimal effective dose (5-HT-induced bradycardia; [3]): 5 mg/kg

O=c1[nH]c2ccccc2n1CCCN1CCC(n2c(=O)[nH]c3cc(Cl)ccc32)CC1 [domperidone, reference compound]
minimal effective dose (5-HT-induced bradycardia; [2]): > 10 mg/kg

O=C(c1ccc(F)cc1)C1CCN(CCn2c(=O)[nH]c3ccccc3c2=O)CC1 [ketanserin, reference compound]
minimal effective dose (5-HT-induced bradycardia; [3]): > 10 mg/kg

CNC1(C)C2CCC(C2)C1(C)C (stereo not shown) [mecamylamine, reference compound]
minimal effective dose (5-HT-induced bradycardia; [3]): 2.5 mg/kg

CC[C@@H](CO)NC(=O)[C@@H]1C=C2c3cccc4c3c(cn4C)C[C@H]2N(C)C1 [methysergide, reference compound]
minimal effective dose (5-HT-induced bradycardia; [2]): > 10 mg/kg

CCN(CC)CCNC(=O)c1cc(Cl)c(N)cc1OC [metoclopramide, reference compound]
minimal effective dose (5-HT-induced bradycardia; [2]): 5 mg/kg

CN1[C@@H]2C[C@@H](OC(=O)[C@H](CO)c3ccccc3)C[C@H]1[C@@H]1O[C@@H]12 [scopolamine, reference compound]
minimal effective dose (5-HT-induced bradycardia; [2]): 2.5 mg/kg
